#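 Dose response: 5 concentrations. Exposure: 48 h. Format: 96-well plates. Endpoint: linear interpolation; highest concentration if not reached. GI50 = concentration required for 50% inhibition of growth.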 Active and inactive are the calls of the source. Cut-off read from the data, not from the text of the source: active = GI50 up to about 1.1 µM and inactive = higher.
# Legend:
# Assay in all cases: NCI-60 cell line screen, 48 h
# [1] = system: OVCAR-4
# [2] = system: ACHN
# [3] = system: KM12
# [4] = system: DMS-114
# [5] = system: IGROV-1
# [6] = system: CAKI-1
# [7] = system: HOP-62
# [8] = system: OVCAR-5
# [9] = system: SF-268
# [10] = system: LXFL 529
# [11] = system: HL-60
# [12] = system: SK-MEL-2
# [13] = system: SNB-75
# [14] = system: NCI-H460
# [15] = system: EKVX
# [16] = system: DU-145
# [17] = system: PC-3
# [18] = system: T47D
# [19] = system: MCF7
# [20] = system: MDA-MB-435
SMILES,GI50 [1],GI50 [2],GI50 [3],GI50 [4],GI50 [5],GI50 [6],GI50 [7],GI50 [8],GI50 [9],GI50 [10],GI50 [11],GI50 [12],GI50 [13],GI50 [14],GI50 [15],GI50 [16],GI50 [17],GI50 [18],GI50 [19],GI50 [20]
Cc1c2cc[n+](COC(=O)c3ccccc3)cc2c(C)c2c1[nH]c1ccccc12,0.587 µM (active),0.532 µM (active),0.533 µM (active),0.75 µM (active),0.299 µM (active),1.4 µM (inactive),1.31 µM (inactive),0.824 µM (active),0.571 µM (active),0.506 µM (active),1.1 µM (active),–,–,–,–,–,–,–,–,–
ClC1c2ccccc2C2(c3ccccc3)OOC1(c1ccccc1)O2 (stereo not drawn),1.48 µM (inactive),1.55 µM (inactive),1.77 µM (inactive),0.267 µM (active),–,2.37 µM (inactive),10.3 µM (inactive),4.24 µM (inactive),1.97 µM (inactive),–,0.136 µM (active),1.94 µM (inactive),1.77 µM (inactive),1.64 µM (inactive),2.18 µM (inactive),–,–,–,–,–
CC(C)(C)C(=O)ON1N=NC2C3CC(OCc4ccccc4)(OCc4ccccc4)C(O3)C21 (stereo not drawn),22.6 µM (inactive),27.7 µM (inactive),23.6 µM (inactive),–,35.1 µM (inactive),31 µM (inactive),28.3 µM (inactive),33.6 µM (inactive),29.1 µM (inactive),11.1 µM (inactive),3.79 µM (inactive),19.1 µM (inactive),24.1 µM (inactive),24 µM (inactive),–,–,–,–,–,–
CC(=O)CC(=O)/C=C/c1cccs1,87.5 µM (inactive),97.3 µM (inactive),55.2 µM (inactive),59.4 µM (inactive),> 100 µM (inactive),> 100 µM (inactive),> 100 µM (inactive),> 100 µM (inactive),45 µM (inactive),85.3 µM (inactive),27.9 µM (inactive),> 100 µM (inactive),–,64.1 µM (inactive),> 100 µM (inactive),–,–,–,–,–
CN(C)CCNC(=O)c1cccc2nc3c4ccccc4c4ccccc4c3nc12,1.8 µM (inactive),5.01 µM (inactive),1.56 µM (inactive),–,3.38 µM (inactive),17.6 µM (inactive),16.2 µM (inactive),7.67 µM (inactive),0.569 µM (active),2.19 µM (inactive),1.76 µM (inactive),3.22 µM (inactive),2.52 µM (inactive),0.875 µM (active),5.77 µM (inactive),1.79 µM (inactive),1.65 µM (inactive),8.13 µM (inactive),1.14 µM (inactive),1.81 µM (inactive)
O=c1[nH]c(=O)n(C2OC3COC2C3O)cc1F (stereo not drawn),> 100 µM (inactive),> 100 µM (inactive),> 100 µM (inactive),–,–,> 100 µM (inactive),> 100 µM (inactive),> 100 µM (inactive),> 100 µM (inactive),> 100 µM (inactive),> 100 µM (inactive),> 100 µM (inactive),> 100 µM (inactive),> 100 µM (inactive),> 100 µM (inactive),–,–,–,–,–
CCOc1cccc2c1N[S@@](=O)S2,–,> 100 µM (inactive),> 100 µM (inactive),–,> 100 µM (inactive),> 100 µM (inactive),–,–,> 100 µM (inactive),58.7 µM (inactive),> 100 µM (inactive),> 100 µM (inactive),> 100 µM (inactive),–,> 100 µM (inactive),–,–,–,–,–
CN(C)CCNC(=O)c1cccc2nc3ccc4cccnc4c3nc12,0.468 µM (active),0.126 µM (active),0.564 µM (active),0.533 µM (active),0.359 µM (active),0.224 µM (active),0.393 µM (active),0.916 µM (active),0.298 µM (active),–,0.348 µM (active),0.895 µM (active),0.507 µM (active),0.0565 µM (active),0.507 µM (active),–,–,–,–,–
Nc1ncnc2c1ncn2C1CC(OC2CCCCO2)C(CO)O1 (stereo not drawn),> 100 µM (inactive),> 100 µM (inactive),> 100 µM (inactive),> 100 µM (inactive),> 100 µM (inactive),–,> 100 µM (inactive),> 100 µM (inactive),> 100 µM (inactive),> 100 µM (inactive),> 100 µM (inactive),> 100 µM (inactive),–,> 100 µM (inactive),67.5 µM (inactive),–,–,–,–,–
CSc1nc2c(ncn2C2OCC(O)C(O)C2O)c(=O)[nH]1 (stereo not drawn),> 100 µM (inactive),–,> 100 µM (inactive),> 100 µM (inactive),> 100 µM (inactive),–,> 100 µM (inactive),> 100 µM (inactive),> 100 µM (inactive),–,> 100 µM (inactive),> 100 µM (inactive),> 100 µM (inactive),> 100 µM (inactive),> 100 µM (inactive),–,–,–,> 100 µM (inactive),–
COc1cccc2c1C(=O)c1c(O)c3c(c(O)c1C2=O)C[C@@](O)(C(=O)CO)CC3OC1CC(N)C(OC2CCCCO2)C(C)O1 (stereo partly drawn),0.0366 µM (active),0.24 µM (active),0.0399 µM (active),–,0.929 µM (active),0.916 µM (active),0.144 µM (active),1.71 µM (inactive),0.785 µM (active),0.668 µM (active),0.207 µM (active),1.85 µM (inactive),0.417 µM (active),0.0134 µM (active),1.39 µM (inactive),0.0031 µM (active),0.0461 µM (active),0.00871 µM (active),0.001 µM (active),0.0807 µM (active)
C/C=C1/C(=O)O[C@]23C=C[C@@H]4C(C(=O)OC)=CO[C@H](O[C@@H]12)[C@@H]43 [PLUMERICIN],1.52 µM (inactive),–,2.28 µM (inactive),1.12 µM (inactive),1.19 µM (inactive),1.14 µM (inactive),6.38 µM (inactive),3.66 µM (inactive),1.28 µM (inactive),–,0.24 µM (active),1.44 µM (inactive),3.34 µM (inactive),2.08 µM (inactive),1.3 µM (inactive),–,–,–,0.832 µM (active),–
CC(=O)NC1=C(C)C(=O)c2c(nc3n2CCC3O)C1=N (stereo not drawn),4.09 µM (inactive),16.3 µM (inactive),18.5 µM (inactive),3.4 µM (inactive),18.7 µM (inactive),13.4 µM (inactive),38.8 µM (inactive),21.6 µM (inactive),10.3 µM (inactive),–,4.49 µM (inactive),9.68 µM (inactive),26.2 µM (inactive),22 µM (inactive),21.1 µM (inactive),–,–,–,–,–
CCOC(=O)C1=C(Nc2ccccc2)SCC1=O,63.2 µM (inactive),> 100 µM (inactive),> 100 µM (inactive),–,> 100 µM (inactive),> 100 µM (inactive),> 100 µM (inactive),> 100 µM (inactive),> 100 µM (inactive),> 100 µM (inactive),> 100 µM (inactive),> 100 µM (inactive),> 100 µM (inactive),> 100 µM (inactive),–,–,–,–,–,–
